Measurements as given in PubChem BioAssay AID1053166 (Broad Institute, 2014).

Test system: Vaccinia-infected cells, mCherry/Venus stage reporter fluorescence
Assay: inhibition of vaccinia stage-reporter fluorescence – cell-based, dry powder, dose response (AID 1053166)

| SMILES | AC50 [µM] |
| --- | --- |
| Cc1cccc(-c2ccc(CN(C)C[C@@H]3Oc4cc(C#C[C@@H](C)O)ccc4S(=O)(=O)N([C@@H](C)CO)C[C@@H]3C)cc2)c1 | 2.37 |
| Cc1ccccc1-c1ccc(CN(C)C[C@@H]2Oc3cc(C#C[C@@H](C)O)ccc3S(=O)(=O)N([C@@H](C)CO)C[C@@H]2C)cc1 | 1.15 |
| C[C@@H](O)C#Cc1ccc2c(c1)O[C@@H](CN(C)Cc1ccc(-c3ccccc3Cl)cc1)[C@@H](C)CN([C@@H](C)CO)S2(=O)=O | 0.992 |
| Cc1ccc(-c2ccc(CN(C)C[C@@H]3Oc4cc(C#C[C@@H](C)O)ccc4S(=O)(=O)N([C@@H](C)CO)C[C@@H]3C)cc2)cc1 | 1.79 |
